pKi: −log10 of the molar value.
Tests used:
[1] = molecular target: Neuronal acetylcholine receptor subunit alpha-7 (Rattus norvegicus, UniProt Q05941); experiment: Binding affinity towards alpha-7 neuronal nicotinic acetylcholine receptor (nAChRs) measured by using the inhibition of [3H]-MLA binding to whole brain membrane
[2] = molecular target: Neuronal acetylcholine receptor; alpha4/beta2 (Rattus norvegicus, UniProt P09483+P12390); experiment: Binding affinity towards alpha4-beta2 measured by using the inhibition of [3H]NIC binding to rat striatal membrane; design: species or system Striatum
Chain of Neuronal acetylcholine receptor; alpha4/beta2 (P09483 whole entry): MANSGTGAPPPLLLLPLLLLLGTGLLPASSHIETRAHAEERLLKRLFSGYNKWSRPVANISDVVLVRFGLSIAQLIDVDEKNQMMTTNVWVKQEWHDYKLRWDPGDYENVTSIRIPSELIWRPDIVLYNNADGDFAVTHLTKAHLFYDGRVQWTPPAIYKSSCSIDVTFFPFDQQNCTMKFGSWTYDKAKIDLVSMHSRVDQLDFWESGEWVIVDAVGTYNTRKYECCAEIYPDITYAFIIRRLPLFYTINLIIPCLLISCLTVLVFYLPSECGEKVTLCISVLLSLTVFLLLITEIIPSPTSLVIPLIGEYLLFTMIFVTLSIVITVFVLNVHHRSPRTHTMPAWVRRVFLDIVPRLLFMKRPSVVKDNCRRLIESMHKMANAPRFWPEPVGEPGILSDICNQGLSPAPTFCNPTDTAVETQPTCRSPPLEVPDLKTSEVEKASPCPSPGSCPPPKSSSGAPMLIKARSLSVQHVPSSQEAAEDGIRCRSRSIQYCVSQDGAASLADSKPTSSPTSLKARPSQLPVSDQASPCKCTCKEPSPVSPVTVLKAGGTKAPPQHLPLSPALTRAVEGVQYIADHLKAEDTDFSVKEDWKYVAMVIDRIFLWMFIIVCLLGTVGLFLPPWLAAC
Chain of Neuronal acetylcholine receptor; alpha4/beta2 (P12390 whole entry): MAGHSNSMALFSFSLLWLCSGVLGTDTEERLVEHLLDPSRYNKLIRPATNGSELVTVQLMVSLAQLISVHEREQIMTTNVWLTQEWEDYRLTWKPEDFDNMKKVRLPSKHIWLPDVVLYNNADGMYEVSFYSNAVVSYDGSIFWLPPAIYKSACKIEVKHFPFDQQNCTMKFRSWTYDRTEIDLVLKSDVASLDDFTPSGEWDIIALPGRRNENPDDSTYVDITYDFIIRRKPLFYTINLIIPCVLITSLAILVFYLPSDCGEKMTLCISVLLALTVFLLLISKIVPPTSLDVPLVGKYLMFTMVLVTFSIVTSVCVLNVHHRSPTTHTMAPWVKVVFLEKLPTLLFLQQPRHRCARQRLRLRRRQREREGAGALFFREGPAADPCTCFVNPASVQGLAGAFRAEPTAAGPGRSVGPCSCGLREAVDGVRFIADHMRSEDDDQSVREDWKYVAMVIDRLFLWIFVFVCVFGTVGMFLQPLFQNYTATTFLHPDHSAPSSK

Chain of Neuronal acetylcholine receptor subunit alpha-7 (Q05941 whole entry): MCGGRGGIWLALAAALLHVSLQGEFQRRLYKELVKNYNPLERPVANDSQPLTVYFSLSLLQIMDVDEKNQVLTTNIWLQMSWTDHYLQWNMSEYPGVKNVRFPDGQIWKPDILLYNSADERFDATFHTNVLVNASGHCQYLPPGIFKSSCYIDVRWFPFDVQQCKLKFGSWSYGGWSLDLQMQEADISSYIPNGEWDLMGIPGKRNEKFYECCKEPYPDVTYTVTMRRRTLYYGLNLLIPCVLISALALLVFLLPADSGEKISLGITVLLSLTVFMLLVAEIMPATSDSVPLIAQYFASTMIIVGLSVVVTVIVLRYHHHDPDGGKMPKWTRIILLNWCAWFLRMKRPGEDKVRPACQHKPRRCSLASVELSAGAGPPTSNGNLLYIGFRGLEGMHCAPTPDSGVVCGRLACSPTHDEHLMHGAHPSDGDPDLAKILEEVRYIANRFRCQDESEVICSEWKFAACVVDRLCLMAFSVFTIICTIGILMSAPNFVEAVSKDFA

Structure (SMILES)	pKi [1]	pKi [2]
CN1CCC[C@H]1CN1CCN(Cc2cccnc2)CC1	< 4.00	
O=C([C@@H]1CCCN1)N1CCN(Cc2ccccn2)CC1	< 4.00	< 4.00
CN1CCC[C@H]1CN1CCN(Cc2ccncc2)CC1	< 4.00	4.41
c1cncc(CN2CCN(C[C@@H]3CCCN3)CC2)c1	< 4.00	< 4.00
c1cc(CN2CCN(C[C@@H]3CCCN3)CC2)ccn1	< 4.00	4.34
O=C(C1CCCCN1)N1CCN(Cc2ccncc2)CC1 (racemic)	< 4.00	4.22
CN1CCCCC1CN1CCN(Cc2cccnc2)CC1 (racemic)	< 4.00	
O=C(C1CCCCN1)N1CCN(Cc2ccccn2)CC1 (racemic)	< 4.00	< 4.00
CN1CCCCC1CN1CCN(Cc2ccncc2)CC1 (racemic)	< 4.00	4.38
c1cncc(CN2CCN(CC3CCCCN3)CC2)c1 (racemic)	< 4.00	< 4.00
c1cc(CN2CCN(CC3CCCCN3)CC2)ccn1 (racemic)	< 4.00	< 4.00
O=C(C1CCCCN1)N1CCN(Cc2cccnc2)CC1 (racemic) [SCR01020]	< 4.00	4.26
c1cncc([C@@H]2CCCN2)c1 [NORNICOTINE]	5.92	
